From patent US20220081421A1, “ANTIBACTERIAL COMPOUNDS” (Forge Therapeutics, Inc., priority 2018, published 2022)
In brackets after ≈: the same amount, converted by molar mass. Read-outs that look alike come from different tables or passages of the source.

What was measured:
[1] = system: E. coli; assay: MIC by broth microdilution (CLSI), E. coli; type: cell-based; details: Escherichia coli, read-out: E. coli MIC
How it was run: (§1)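 CLSI broth microdilution in cation-adjusted Mueller-Hinton broth with 2-fold serial drug dilutions; final inoculum 3×10^5–7×10^5 CFU/mL. Incubated 18-24 h at 35° C in ambient air; MIC is the lowest concentration preventing visible growth (OD600 nm<0.05).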

[2] = system: K. pneumoniae; assay: MIC by broth microdilution (CLSI), K. pneumoniae; type: cell-based; details: Klebsiella pneumoniae, read-out: K. pneumoniae MIC
How it was run: as §1

[3] = broth microdilution, cation adjusted Mueller-Hinton Broth, 35° C., 18-24 h

MIC [1, 3] [µg/mL] | MIC [2, 3] [µg/mL] | SMILES | MIC [1] [µg/mL] | MIC [2] [µg/mL]
1 to 8 (≈ 2.34 to 18.7 µM) | 1 to 8 (≈ 2.34 to 18.7 µM) | C=C(Cc1ccc(C#Cc2ccc(CN3CCOCC3)cc2)cc1)c1nc[nH]c(=O)c1O [Compound 105, 5-hydroxy-6-(3-(4-((4-(morpholinomethyl)phenyl)ethynyl)phenyl)prop-1-en-2-yl)pyrimidin-4(3H)-one] |  | 
> 32 | > 32 | O=C(NCC(F)F)C(Cc1ccc(-c2ccc(-n3cccn3)cc2)cc1)c1nc[nH]c(=O)c1O (stereo not drawn) [Compound 38, 3-(4′-(1H-pyrazol-1-yl)-[1,1-biphenyl]-4-yl)-N-(2,2-difluoroethyl)-2-(5-hydroxy-6-oxo-1,6-dihydropyrimidin-4-yl)propanamide] |  | 
1 to 8 (≈ 2.2 to 17.6 µM) | 1 to 8 (≈ 2.2 to 17.6 µM) | N#CCC(Cc1ccc(C#Cc2ccc(CN3CCOCC3)cc2)cc1)c1nc[nH]c(=O)c1O (stereo not drawn) [Compound 106, 3-(5-hydroxy-6-oxo-1,6-dihydropyrimidin-4-yl)-4-(4-((4-(morpholinomethyl)phenyl)ethynyl)phenyl)butanenitrile] |  | 
> 32 | > 32 | O=C1N(CCc2nc[nH]c(=O)c2O)Cc2cc(Br)cn21 [Compound 69, 6-bromo-2-(2-(5-hydroxy-6-oxo-1,6-dihydropyrimidin-4-yl)ethyl)-1,2-dihydro-3H-pyrrolo[1,2-c]imidazol-3-one] |  | 
8 to 32 (≈ 16.4 to 65.8 µM) | 8 to 32 (≈ 16.4 to 65.8 µM) | CC(=O)NCC(Cc1ccc(C#Cc2ccc(CN3CCOCC3)cc2)cc1)c1nncc(O)c1O (stereo not drawn) [Compound 11, N-(2-(4,5-dihydroxypyridazin-3-yl)-3-(4-((4-(morpholinomethyl)phenyl)ethynyl)phenyl)propyl) acetamide] |  | 
1 to 8 (≈ 2.2 to 17.6 µM) | 8 to 32 (≈ 17.6 to 70.4 µM) | N#CCC(Cc1ccc(C#Cc2ccc(CN[C@H]3CCOC3)cc2)cc1)c1nc[nH]c(=O)c1O (stereo partly drawn) [Compound 107, 3-(5-hydroxy-6-oxo-1,6-dihydropyrimidin-4-yl)-4-(4-((4-((((S)-tetrahydrofuran-3-yl)amino)methyl)phenyl)ethynyl)phenyl)butanenitrile] |  | 
8 to 32 (≈ 19.3 to 77 µM) | > 32 | O=c1ccoc(CCc2ccc(C#Cc3ccc(CN4CCOCC4)cc3)cc2)c1O [Compound 117, 3-hydroxy-2-(4-((4-(morpholinomethyl)phenyl)ethynyl)phenethyl)-4H-pyran-4-one] |  | 
< 1 | > 32 | O=c1[nH]cnc(CCc2ccc(C#Cc3ccncc3)cc2)c1O [Compound 18, 5-hydroxy-6-(4-(pyridin-4-ylethynyl)phenethyl) pyrimidin-4(3H)-one] |  | 
1 to 8 (≈ 2.24 to 18 µM) | 1 to 8 (≈ 2.24 to 18 µM) | O=c1ccoc(CC(CO)c2ccc(C#Cc3ccc(CN4CCOCC4)cc3)cc2)c1O (stereo not drawn) [Compound 137, 3-hydroxy-2-(3-hydroxy-2-(4-((4-(morpholinomethyl)phenyl)ethynyl)phenyl)propyl)-4H-pyran-4-one] |  | 
 |  | Cn1cnc(C(CNC(=O)CF)Cc2ccc(C#Cc3ccc(CN4CCOCC4)cc3)cc2)c(O)c1=O (stereo not drawn) [Compound 132, 2-fluoro-N-(2-(5-hydroxy-1-methyl-6-oxo-1,6-dihydropyrimidin-4-yl)-3-(4-((4-(morpholinomethyl)phenyl)ethynyl)phenyl)propyl)acetamide] | > 32 | > 32
1 to 8 (≈ 2.42 to 19.3 µM) | 8 to 32 (≈ 19.3 to 77.4 µM) | C=CCNCC(Cc1ccc(C#CC#Cc2cnn(C)c2)cc1)c1nc[nH]c(=O)c1O (stereo not drawn) [Compound 62, 6-(1-(allylamino)-3-(4-((1-methyl-1H-pyrazol-4-yl)buta-1,3-diyn-1-yl)phenyl)propan-2-yl)-5-hydroxypyrimidin-4(3H)-one] |  | 
< 1 | 8 to 32 (≈ 18.5 to 74 µM) | O=c1[nH]cnc(CCn2ccc(C#Cc3ccc(CN4CCOCC4)cc3)cc2=O)c1O [Compound 23, 5-hydroxy-6-(2-(4-((4-(morpholinomethyl)phenyl)ethynyl)-2-oxopyridin-1(2H)-yl)ethyl)pyrimidin-4(3H)-one] |  | 
1 to 8 (≈ 2.34 to 18.8 µM) | > 32 | O=c1[nH]cnc(C2CC2c2ccc(C#Cc3ccc(CN[C@@H]4CCNC4)cc3)cc2)c1O (stereo partly drawn) [Compound 103, 5-hydroxy-6-(2-(4-((4-((((R)-pyrrolidin-3-yl)amino)methyl)phenyl)ethynyl)phenyl)cyclopropyl) pyrimidin-4(3H)-one] |  | 
8 to 32 (≈ 18.9 to 75.7 µM) | > 32 | O=c1[nH]cnc(CCN2CCC(C#Cc3ccc(CN4CCOCC4)cc3)CC2)c1O [Compound 78, 5-hydroxy-6-(2-(4-((4-(morpholinomethyl)phenyl)ethynyl)piperidin-1-yl)ethyl)pyrimidin-4(3H)-one] |  | 
> 32 | > 32 | CC(=O)NCC(Cc1ccc(C#Cc2ccc(CN3CCOCC3)cc2)cc1)c1c(O)cn[nH]c1=O (stereo not drawn) [Compound 131, N-(2-(5-hydroxy-3-oxo-2,3-dihydropyridazin-4-yl)-3-(4-((4-(morpholinomethyl)phenyl)ethynyl)phenyl)propyl)acetamide] |  | 
